Test results as given in patent US10022376B2 (Pfizer Inc., priority 2014, dated 2018).
pIC50: −log10 of the molar value. Counter-ions that a name gives are not always drawn.

target: JAK1 (Homo sapiens (Human), UniProt P23458); assay: JAK Caliper Enzyme Assay at 1 mM ATP (JAK1); type: biochemical; settings: Caliper assay at 1 mM ATP
Sequence (P23458 whole entry): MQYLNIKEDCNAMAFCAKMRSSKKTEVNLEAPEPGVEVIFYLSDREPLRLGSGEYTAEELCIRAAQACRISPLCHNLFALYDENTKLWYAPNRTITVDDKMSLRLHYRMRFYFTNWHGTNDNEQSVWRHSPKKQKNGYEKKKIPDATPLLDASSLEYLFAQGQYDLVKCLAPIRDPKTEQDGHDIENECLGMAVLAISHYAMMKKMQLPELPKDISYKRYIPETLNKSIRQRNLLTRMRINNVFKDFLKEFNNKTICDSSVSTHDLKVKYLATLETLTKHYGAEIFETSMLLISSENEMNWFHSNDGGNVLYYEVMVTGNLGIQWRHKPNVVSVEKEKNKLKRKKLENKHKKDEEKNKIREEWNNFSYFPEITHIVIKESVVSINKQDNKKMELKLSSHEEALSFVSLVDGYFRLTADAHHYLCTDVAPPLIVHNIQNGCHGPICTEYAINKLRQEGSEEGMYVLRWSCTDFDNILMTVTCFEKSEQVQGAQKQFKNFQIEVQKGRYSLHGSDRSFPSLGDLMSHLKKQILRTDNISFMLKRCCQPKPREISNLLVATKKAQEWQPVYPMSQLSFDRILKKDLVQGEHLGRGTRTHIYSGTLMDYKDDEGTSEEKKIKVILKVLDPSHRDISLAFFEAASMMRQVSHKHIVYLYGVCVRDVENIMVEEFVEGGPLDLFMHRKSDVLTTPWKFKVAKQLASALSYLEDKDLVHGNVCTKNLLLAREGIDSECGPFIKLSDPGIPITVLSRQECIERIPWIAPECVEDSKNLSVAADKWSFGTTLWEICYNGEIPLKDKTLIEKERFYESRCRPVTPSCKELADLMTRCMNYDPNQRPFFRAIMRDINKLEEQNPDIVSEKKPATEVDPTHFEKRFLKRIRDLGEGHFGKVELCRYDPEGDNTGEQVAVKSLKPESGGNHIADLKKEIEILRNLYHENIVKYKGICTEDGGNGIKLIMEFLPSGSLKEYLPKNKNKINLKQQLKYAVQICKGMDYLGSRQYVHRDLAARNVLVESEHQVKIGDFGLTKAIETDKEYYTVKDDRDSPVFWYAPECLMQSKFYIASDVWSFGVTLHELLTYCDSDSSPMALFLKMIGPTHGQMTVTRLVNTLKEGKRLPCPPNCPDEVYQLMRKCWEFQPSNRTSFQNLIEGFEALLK

pIC50 | SMILES
8.07 | CCCCN(c1ccccc1CNc1nc(-c2cc(F)c(O)cc2CC)cc2[nH]ncc12)S(C)(=O)=O [Example 139, N-butyl-N-[2-({[6-(2-ethyl-5-fluoro-4-hydroxyphenyl)-1H-pyrazolo[4,3-c]pyridin-4-yl]amino}-methyl)phenyl]methanesulfonamide]

target: JAK3 (Homo sapiens (Human), UniProt P52333); assay: JAK Caliper Enzyme Assay at 1 mM ATP (JAK3); type: biochemical; settings: Caliper assay at 1 mM ATP
Sequence (P52333 whole entry): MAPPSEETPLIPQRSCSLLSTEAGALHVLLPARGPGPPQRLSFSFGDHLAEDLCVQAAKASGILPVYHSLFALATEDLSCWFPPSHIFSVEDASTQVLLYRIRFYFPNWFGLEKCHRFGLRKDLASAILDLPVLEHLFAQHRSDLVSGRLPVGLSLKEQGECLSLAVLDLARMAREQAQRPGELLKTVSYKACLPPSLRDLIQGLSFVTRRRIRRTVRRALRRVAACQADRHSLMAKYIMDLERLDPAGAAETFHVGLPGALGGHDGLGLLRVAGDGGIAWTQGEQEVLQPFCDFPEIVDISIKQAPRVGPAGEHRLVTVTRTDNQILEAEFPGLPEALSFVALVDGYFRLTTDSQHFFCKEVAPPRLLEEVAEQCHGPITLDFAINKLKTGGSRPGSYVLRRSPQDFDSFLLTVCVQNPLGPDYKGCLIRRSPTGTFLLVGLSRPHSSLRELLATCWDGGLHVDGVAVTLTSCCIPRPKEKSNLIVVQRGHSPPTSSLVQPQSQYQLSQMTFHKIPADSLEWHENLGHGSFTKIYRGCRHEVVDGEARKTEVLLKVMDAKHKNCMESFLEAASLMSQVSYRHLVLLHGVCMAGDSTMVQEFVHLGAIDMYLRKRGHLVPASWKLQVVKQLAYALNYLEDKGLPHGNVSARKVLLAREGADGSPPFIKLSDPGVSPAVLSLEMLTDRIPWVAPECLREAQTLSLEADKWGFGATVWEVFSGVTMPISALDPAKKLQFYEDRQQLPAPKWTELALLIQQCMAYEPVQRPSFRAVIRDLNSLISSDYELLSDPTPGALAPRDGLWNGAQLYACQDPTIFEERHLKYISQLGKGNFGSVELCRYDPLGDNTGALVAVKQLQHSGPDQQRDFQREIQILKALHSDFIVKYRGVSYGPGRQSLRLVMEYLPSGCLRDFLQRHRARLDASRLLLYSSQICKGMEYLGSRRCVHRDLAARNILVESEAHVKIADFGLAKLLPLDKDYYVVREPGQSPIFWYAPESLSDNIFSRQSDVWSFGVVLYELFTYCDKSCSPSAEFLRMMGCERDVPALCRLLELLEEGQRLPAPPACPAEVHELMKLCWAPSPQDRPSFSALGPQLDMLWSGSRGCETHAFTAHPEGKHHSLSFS

pIC50 | SMILES
7.38 | CCc1cc(O)ccc1-c1cc2[nH]ncc2c(N2CCc3c(cccc3C(=O)NCc3ccccc3)C2)n1 [Example 117, N-benzyl-2-[6-(2-ethyl-4-hydroxyphenyl)-1H-pyrazolo[4,3-c]pyridin-4-yl]-1,2,3,4-tetrahydroisoquinoline-5-carboxamide formate]

target: TYK2 (Homo sapiens (Human), UniProt P29597); assay: JAK Caliper Enzyme Assay at 1 mM ATP (TYK2); type: biochemical; settings: Caliper assay at 1 mM ATP
Sequence (P29597 whole entry): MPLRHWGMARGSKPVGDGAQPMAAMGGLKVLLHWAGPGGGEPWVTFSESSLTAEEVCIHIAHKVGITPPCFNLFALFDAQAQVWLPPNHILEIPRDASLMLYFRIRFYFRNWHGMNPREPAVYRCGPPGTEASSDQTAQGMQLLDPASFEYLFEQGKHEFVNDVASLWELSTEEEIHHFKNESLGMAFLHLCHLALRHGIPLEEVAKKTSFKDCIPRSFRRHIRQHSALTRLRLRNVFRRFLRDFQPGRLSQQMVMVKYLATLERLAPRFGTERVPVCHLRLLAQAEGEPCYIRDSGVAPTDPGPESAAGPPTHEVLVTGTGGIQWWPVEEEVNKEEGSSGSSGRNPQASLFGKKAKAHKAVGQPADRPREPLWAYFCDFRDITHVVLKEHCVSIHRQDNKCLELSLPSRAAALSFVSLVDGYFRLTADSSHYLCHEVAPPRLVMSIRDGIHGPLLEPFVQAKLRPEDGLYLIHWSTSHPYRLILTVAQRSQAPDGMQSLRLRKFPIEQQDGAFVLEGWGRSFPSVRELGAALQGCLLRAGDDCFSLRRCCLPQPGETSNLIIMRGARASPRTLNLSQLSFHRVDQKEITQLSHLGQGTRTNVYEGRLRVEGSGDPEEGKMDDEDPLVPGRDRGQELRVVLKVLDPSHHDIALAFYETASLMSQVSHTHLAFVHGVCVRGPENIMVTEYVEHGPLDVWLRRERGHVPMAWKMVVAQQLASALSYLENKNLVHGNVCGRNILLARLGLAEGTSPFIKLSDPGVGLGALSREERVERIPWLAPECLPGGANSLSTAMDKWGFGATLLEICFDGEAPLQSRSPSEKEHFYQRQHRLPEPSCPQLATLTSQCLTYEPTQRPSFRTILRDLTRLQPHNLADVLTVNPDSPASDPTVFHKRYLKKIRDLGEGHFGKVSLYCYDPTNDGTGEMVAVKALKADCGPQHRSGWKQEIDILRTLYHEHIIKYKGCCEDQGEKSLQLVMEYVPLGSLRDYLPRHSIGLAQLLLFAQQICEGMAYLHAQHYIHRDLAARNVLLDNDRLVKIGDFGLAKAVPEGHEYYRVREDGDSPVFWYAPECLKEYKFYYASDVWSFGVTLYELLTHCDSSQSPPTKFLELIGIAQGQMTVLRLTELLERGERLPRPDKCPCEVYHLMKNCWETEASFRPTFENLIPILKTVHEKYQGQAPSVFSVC

pIC50 | SMILES
6.37 | CCc1cc(O)ccc1-c1cc2[nH]ncc2c(N2CCc3c(cccc3C(=O)NCc3ccccc3)C2)n1 [Example 117, N-benzyl-2-[6-(2-ethyl-4-hydroxyphenyl)-1H-pyrazolo[4,3-c]pyridin-4-yl]-1,2,3,4-tetrahydroisoquinoline-5-carboxamide formate]

tested on: rhIFNγ stimulated STAT-3 phosphorylation in the A549 human epithelial cell line; assay: A549 Cell Assay: Inhibition of pSTAT3; type: cell-based; settings: A549 cells
Procedure, shortened: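 Percent inhibition of STAT3 Tyr705 phosphorylation was measured by MSD immunoassay of cell lysates. A549 cells were given compound for 1 h at 37° C (final 0.3 nM to 10 μM, 0.1% DMSO, in 0.2% BSA DMEM), followed by 30 min of rhIFNγ stimulation at 20 ng/mL final. Unstimulated DMSO wells served as background.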

pIC50 | SMILES
7.52 | CCc1cc(O)c(F)cc1-c1nc(NCc2ccccc2N(C)S(C)(=O)=O)c2cn[nH]c2n1 [Example 155, N-[2-({[6-(2-Ethyl-5-fluoro-4-hydroxyphenyl-1H-pyrazolo[3,4-d]pyrimidin-4-yl]amino}methyl)phenyl]-N-methylmethanesulfonamide hydrochloride]
7.14 | CCc1cc(O)cc(C)c1-c1cc2[nH]ncc2c(NCc2ccccc2N(C)S(C)(=O)=O)n1 [Example 156]
7.50 | CCc1cc(O)c(F)cc1-c1cc2[nH]nc(-c3nc(C)c(C)[nH]3)c2c(NCc2ccccc2N(C)S(C)(=O)=O)n1 [Example 158]

same assay, conditions: Homo sapiens; A549 cells

pIC50 | SMILES
5.82 | CN(c1ccc(O)cc1CNc1nc(-c2cc(F)c(O)cc2CC(F)(F)F)nc2[nH]nc(C(N)=O)c12)S(=O)(=O)c1ccccc1 [Example 108, 4-((2-(N-methylphenylsulfonamido)-5-hydroxybenzyl)amino)-6-(5-fluoro-4-hydroxy-2-(2,2,2-trifluoroethyl)phenyl)-1H-pyrazolo[3,4-d]pyrimidine-3-carboxamide]
< 5.00 | CNC(=O)c1n[nH]c2nc(-c3cc(F)c(O)cc3CC(F)(F)F)nc(NCc3ccccc3N(C)S(=O)(=O)NC)c12 [Example 110, 6-(5-Fluoro-4-hydroxy-2-(2,2,2-trifluoroethyl)phenyl)-N-methyl-4-((2-(methyl(N-methylsulfamoyl)amino)benzyl)amino)-1H-pyrazolo[3,4-d]pyrimidine-3-carboxamide]
7.20 | CCc1cc(O)c(F)cc1-c1cc2[nH]ncc2c(N(CCc2ccc(OC)c(OC)c2)Cc2ccccc2N(C)S(C)(=O)=O)n1 [Example 129, N-[2-({[2-(3,4-dimethoxyphenyl)ethyl][6-(2-ethyl-5-fluoro-4-hydroxyphenyl)-1H-pyrazolo[4,3-c]pyridin-4-yl]amino}methyl)phenyl]-N-methylmethanesulfonamide hydrochloride]
8.48 | CCc1cc(O)c(F)cc1-c1cc2[nH]ncc2c(NCc2ccccc2N(C)S(=O)(=O)CC)n1 [Example 135, N-[2-({[6-(2-ethyl-5-fluoro-4-hydroxyphenyl)-1H-pyrazolo[4,3-c]pyridin-4-yl]amino}methyl)-phenyl]-N-methylethanesulfonamide hydrochloride]
7.88 | CCc1cc(O)c(F)cc1-c1cc2[nH]ncc2c(NCc2ccccc2N(CC)S(=O)(=O)CC)n1 [Example 136, N-ethyl-N-[2-({[6-(2-ethyl-5-fluoro-4-hydroxyphenyl)-1H-pyrazolo[4,3-c]pyridin-4-yl]amino}-methyl)phenyl]ethanesulfonamide hydrochloride]
7.83 | CN(c1ccccc1CNc1nc(-c2cc(F)c(O)cc2CC(F)(F)F)cc2[nH]ncc12)S(C)(=O)=O [Example 148, N-{2-[({6-[5-Fluoro-4-hydroxy-2-(2,2,2-trifluoroethyl)phenyl]-1H-pyrazolo[4,3-c]pyridin-4-yl}amino)methyl]phenyl}-N-methylmethanesulfonamide]
6.87 | Oc1cc(CC(F)(F)F)c(-c2nc(NCC3CC3)c3cn[nH]c3n2)cc1F [Example 151, 4-{4-[(cyclopropylmethyl)amino]-1H-pyrazolo[3,4-d]pyrimidin-6-yl}-2-fluoro-5-(2,2,2-trifluoroethyl)phenol]
6.88 | Oc1cc(CC(F)(F)F)c(-c2nc(NCCC3CC3)c3cn[nH]c3n2)cc1F [Example 152, 4-{4-[(2-cyclopropylethyl)amino]-1H-pyrazolo[3,4-d]pyrimidin-6-yl}-2-fluoro-5-(2,2,2-trifluoroethyl)phenol]
7.58 | CCc1cc(O)c(F)cc1-c1cc2[nH]nc(-c3ncc[nH]3)c2c(NCc2ccccc2N(C)S(C)(=O)=O)n1 [Example 157, N-[2-({[6-(2-Ethyl-5-fluoro-4-hydroxyphenyl)-3-(1H-imidazol-2-yl)-1H-pyrazolo[4,3-c]pyridin-4-yl]amino}methyl)phenyl]-N-methylmethanesulfonamide]
7.73 | CCc1cc(O)c(F)cc1-c1cc2[nH]nc(-c3nc(C)c[nH]3)c2c(NCc2ccccc2N(C)S(C)(=O)=O)n1 [Example 159, N-[2-({[6-(2-Ethyl-5-fluoro-4-hydroxyphenyl)-3-(4-methyl-1H-imidazol-2-yl)-1H-pyrazolo[4,3-c]pyridin-4-yl]amino}methyl)phenyl]-N-methylmethanesulfonamide]
7.70 | CCc1cc(O)c(F)cc1-c1cc2[nH]nc(-n3cccn3)c2c(NCc2ccccc2N(C)S(C)(=O)=O)n1 [Example 162, N-[2-({[6-(2-Ethyl-5-fluoro-4-hydroxyphenyl)-3-(1H-pyrazol-1-yl)-1H-pyrazolo[4,3-c]pyridin-4-yl]amino}methyl)phenyl]-N-methylmethanesulfonamide]
7.01 | CN(c1ccccc1CNc1nc(-c2cc(F)c(O)cc2CC(F)(F)F)cc2[nH]nc(-n3cccn3)c12)S(C)(=O)=O [Example 163, N-{2-[({6-[5-Fluoro-4-hydroxy-2-(2,2,2-trifluoroethyl)phenyl]-3-(1H-pyrazol-1-yl)-1H-pyrazolo[4,3-c]pyridin-4-yl}amino)methyl]phenyl}-N-methylmethanesulfonamide]
< 5.00 | CN(c1ccc(O)cc1CNc1nc(-c2cc(F)c(O)cc2CC(F)(F)F)nc2[nH]nc(-c3nnc(C4CCN(C(N)=O)CC4)[nH]3)c12)S(C)(=O)=O [Example 167, 4-(5-{6-[5-Fluoro-4-hydroxy-2-(2,2,2-trifluoroethyl)phenyl]-4-({5-hydroxy-2-[methyl(methylsulfonyl)amino]benzyl}amino)-1H-pyrazolo[3,4-d]pyrimidin-3-yl}-4H-1,2,4-triazol-3-yl)piperidine-1-carboxamide]
5.88 | CN(c1ccccc1CNc1nc(-c2cc(F)c(O)cc2CC(F)(F)F)nc2[nH]nc(-c3nnc(C4CCN(C(=O)CN5CCCC5)CC4)[nH]3)c12)S(C)(=O)=O [Example 168, N-(2-{[(6-[5-Fluoro-4-hydroxy-2-(2,2,2-trifluoroethyl)phenyl]-3-{5-[1-(pyrrolidin-1-ylacetyl)piperidin-4-yl]-4H-1,2,4-triazol-3-yl}-1H-pyrazolo[3,4-d]pyrimidin-4-yl)amino]methyl}phenyl)-N-methylmethanesulfonamide]
6.66 | CC(CO)CNc1nc(-c2cc(F)c(O)cc2CC(F)(F)F)nc2[nH]nc(-c3nc4c([nH]3)CCN(Cc3ccccc3)C4)c12 (stereo not drawn) [Example 173, 4-(3-(5-Benzyl-4,5,6,7-tetrahydro-1H-imidazo[4,5-c]pyridin-2-yl)-4-((3-hydroxy-2-methylpropyl)amino)-1H-pyrazolo[3,4-d]pyrimidin-6-yl)-2-fluoro-5-(2,2,2-trifluoroethyl)phenol]
